Columns and labels:
T1R1/T1R3 receptor [1] = target: T1, T1R1/T1R3 receptor (Felis catus, UniProt E3UMS2); assay: Example 6: activation of T1R1/T1R3 by transmembrane compounds, conducted as in Example 5; type: cell-based; conditions: T1R1/T1R3 EC50, +0.2 mM IMP
Text: (§1) HEK293 cells that stably express T1R3 and inducibly express T1R1 were exposed to transmembrane compounds alone or in combination with one or more amino acids and/or one or more nucleotides to activate the umami receptor. Activation of the T1R1/T1R3 receptor was detected by a change in intracellular calcium levels using a calcium sensitive fluorescent dye. Cells that express T1R3 but not T1R1 were used as a control. A FLIPR® Tetra or a FlexStation® 3 was used for data capture.
(§2) In each experiment, serial dilutions of up to 10 mM of the transmembrane compound were added to the T1R1/T1R3-expressing cells.

T1R1/T1R3 receptor [2] = target: T1, T1R1/T1R3 receptor; type: cell-based; conditions: threshold in the presence of 0.2 mM IMP; CNBD = Could not be determined
Text: as §1, §2

T1R1/T1R3 receptor [3] = target: T1, T1R1/T1R3 receptor; assay: Example 8: agonist screening of transmembrane compounds on T1R1/T1R3 in HEK293 cells; type: cell-based, cat; conditions: transmembrane compound alone, in words
Procedure: (§3) HEK293 cells that stably express T1R3 and inducibly express T1R1 were exposed to a transmembrane compound. Activation of the T1R1/T1R3 receptor was detected by a change in intracellular calcium levels using a calcium sensitive fluorescent dye and/or a luminescent reporter system. […] A FLIPR® Tetra or a FlexStation® 3 was used for data capture.
Each transmembrane compound was tested at concentrations of 0.01 mM, 0.1 mM, and 1 mM. […] To generate the dose response curves, the transmembrane compound was tested at concentrations of between 0.0001 mM and 1.0 mM in the presence of GMP and Ala.

T1R1/T1R3 receptor [4] = target: T1, T1R1/T1R3 receptor; assay: Example 8: PAM screening of transmembrane compounds with GMP and Ala on T1R1/T1R3 in HEK293 cells; type: cell-based, cat; conditions: in the presence of GMP and Alanine, in words
Text: as §3, with “to” for “to a”, “compound alone or in combination with Ala and GMP to activate the umami receptor.” for “compound.”
Dose response curves were generated for each transmembrane compound at concentrations of 0 (buffer only), 0.01, 0.1 and 1 mM, wherein each of the three concentrations of transmembrane compound was tested in combination with 0.03 mM GMP+100 mM Ala (T1); 0.6 mM GMP+10 mM Ala (T2); 0.1 mM GMP+60 mM Ala (T3) and 0.3 mM GMP+60 mM Ala (T4). The T4 mixture was also tested in a 2-fold dilution series (the T4(X) Concentration). In these experiments, the first test concentration was 2× (2 times) the T4 concentration. The subsequent test concentrations were 2-fold dilutions from that (1×, 0.5× etc.). This dilution series was tested with or without the addition of the test compound at a constant 0.3 mM concentration.
Activation of the umami receptor was also determined in the presence of 1 mM GMP+100 mM Ala to generate a “maximum” umami receptor activation level.

SMILES: COC(=O)[C@H](Cc1ccccc1)NCc1ccccc1 [N-Benzyl-L-phenylalanine methyl ester]
- EC50 (T1R1/T1R3 receptor [1]): 20 ± 1 µM
- Thres +IMP (0.2 mM) (T1R1/T1R3 receptor [2]): 0.003 mM
- agonist profile assessment (T1R1/T1R3 receptor [3]): agonist
- PAM profile assessment (T1R1/T1R3 receptor [4]): PAM activity

Reference: patent US20190021380A1 (priority 2014, published 2019)
